Reference: patent publication US8759333B2, “Di-azetidinyl diamide as monoacylglycerol lipase inhibitors” (Janssen Pharmaceutica, NV, priority 2010, dated 2014)

Biological target: T1, mutant MGL (mut-MGLL 11-313 L179S L186S) (Homo sapiens, UniProt Q99685, L169S/L176S)
T1 construct: purified mutant MGL (mut-MGLL 11-313 L179S L186S)
T1 sequence (Q99685 1-303 L169S/L176S): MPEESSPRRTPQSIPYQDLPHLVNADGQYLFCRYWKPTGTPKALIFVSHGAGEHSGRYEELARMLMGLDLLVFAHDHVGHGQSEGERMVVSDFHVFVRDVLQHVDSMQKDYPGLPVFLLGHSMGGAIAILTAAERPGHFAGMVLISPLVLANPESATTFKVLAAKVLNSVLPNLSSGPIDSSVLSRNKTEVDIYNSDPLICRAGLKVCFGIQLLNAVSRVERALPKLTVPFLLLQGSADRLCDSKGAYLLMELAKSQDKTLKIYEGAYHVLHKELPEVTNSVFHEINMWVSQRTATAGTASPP
Test: MGL Enzyme Activity Assay, purified mutant MGL, 4MU-B substrate
Assay type: biochemical
Conditions: mutant MGL 5 nM, 4MU-B 10 μM, 37° C.; read-out: MGL mutant inh IC50
Experimental: All rate-based assays were performed in black 384-well polypropylene PCR microplates (Abgene) in a total volume of 30 μL. Substrate 4-methylumbelliferyl butyrate (4MU-B; Sigma) and either purified mutant MGL (mut-MGLL 11-313 L179S L186S) or purified wild type MGL (wt-MGLL 6H-11-313) were diluted separately into 20 mM PIPES buffer (pH=7.0), containing 150 mM NaCl and 0.001% Tween 20. Compounds of Formula (I), including Formulas I(a), I(b), and I(c), were pre-dispensed (50 nL) into the assay plate using a Cartesian Hummingbird prior to adding 4MU-B (25 μL of 1.2× solution to a final concentration of 10 μM) followed by enzyme (5 μL of a 6× solution to a final concentration of 5 nM) to initiate the reaction. Final compound concentrations ranged from 17 to 0.0003 μM. The fluorescence change due to 4MU-B cleavage was monitored with excitation and emission wavelengths of 335 and 440 nm, respectively, and a bandwidth of 10 nm (Safire^2, Tecan) at 37° C. for 5 min.
The IC50 values for the following compounds were determined using Microsoft Office Excel from a fit of the equation to the concentration-response plot of the fractional activity as a function of inhibitor concentration.

Row | IC50 | Compound
1 | 8 nM | O=C(NC1CN(C2CN(C(=O)c3cc4ccc(-c5ccccc5)cc4s3)C2)C1)c1nccs1 [Cpd 6, N-{1′-[(6-Phenyl-1-benzothiophen-2-yl)carbonyl]-1,3′-biazetidin-3-yl}-1,3-thiazole-2-carboxamide]
2 | 86 nM | O=C(NC1CN(C2CN(C(=O)c3ccc4nc(-c5ccccc5)sc4c3)C2)C1)c1cscn1 [Cpd 22, N-{1′-[(2-Phenyl-1,3-benzothiazol-6-yl)carbonyl]-1,3′-biazetidin-3-yl}-1,3-thiazole-4-carboxamide]
3 | 154 nM | O=C(NC1CN(C2CN(C(=O)c3ccc4c(-c5ccccc5)cccc4c3)C2)C1)c1ccccc1 [Cpd 25, N-{1′-[(5-Phenylnaphthalen-2-yl)carbonyl]-1,3′-biazetidin-3-yl}benzamide]
4 | 157 nM | O=C(NC1CN(C2CN(C(=O)c3ccc(Cc4ccc(C(F)(F)F)cc4)cc3)C2)C1)c1ccccc1 [Cpd 26, N-[1′-({4-[4-(Trifluoromethyl)benzyl]phenyl}carbonyl)-1,3′-biazetidin-3-yl]benzamide]
5 | 180 nM | O=C(NC1CN(C2CN(C(=O)c3ccc4nc(-c5cccc(C(F)(F)F)c5)oc4c3)C2)C1)c1nccs1 [Cpd 28, N-[1′-({2-[3-(Trifluoromethyl)phenyl]-1,3-benzoxazol-6-yl}carbonyl)-1,3′-biazetidin-3-yl]-1,3-thiazole-2-carboxamide]
6 | 184 nM | O=C(NC1CN(C2CN(C(=O)c3ccc(-c4ccccc4)cc3)C2)C1)c1nccs1 [Cpd 29, N-[1′-(Biphenyl-4-ylcarbonyl)-1,3′-biazetidin-3-yl]-1,3-thiazole-2-carboxamide]
7 | 264 nM | O=C(NC1CN(C2CN(C(=O)c3ccc4nc(-c5ccc(C(F)(F)F)cc5)oc4c3)C2)C1)c1nccs1 [Cpd 30, N-[1′-({2-[4-(Trifluoromethyl)phenyl]-1,3-benzoxazol-6-yl}carbonyl)-1,3′-biazetidin-3-yl]-1,3-thiazole-2-carboxamide]
8 | 287 nM | O=C(NC1CN(C2CN(C(=O)c3ccc(Oc4ccccc4)cc3)C2)C1)c1nccs1 [Cpd 32, N-{1′-[(4-Phenoxyphenyl)carbonyl]-1,3′-biazetidin-3-yl}-1,3-thiazole-2-carboxamide]
9 | 303 nM | O=C(NC1CN(C2CN(C(=O)c3ccc4nc(-c5ccc(Cl)cc5)oc4c3)C2)C1)c1nccs1 [Cpd 33, N-(1′-{[2-(4-Chlorophenyl)-1,3-benzoxazol-6-yl]carbonyl}-1,3′-biazetidin-3-yl)-1,3-thiazole-2-carboxamide]
10 | 332 nM | O=C(NC1CN(C2CN(C(=O)c3ccc4cc(-c5ccccc5)ccc4c3)C2)C1)c1ccccc1 [Cpd 34, N-{1′-[(6-Phenylnaphthalen-2-yl)carbonyl]-1,3′-biazetidin-3-yl}benzamide]
11 | 341 nM | O=C(NC1CN(C2CN(C(=O)c3ccc4oc(-c5ccccc5)nc4c3)C2)C1)c1nccs1 [Cpd 35, N-{1′-[(2-Phenyl-1,3-benzoxazol-5-yl)carbonyl]-1,3′-biazetidin-3-yl}-1,3-thiazole-2-carboxamide]
12 | 458 nM | Cc1c(C(=O)N2CC(N3CC(NC(=O)c4ccccc4)C3)C2)sc2ccc(Cl)cc12 [Cpd 36, N-{1′-[(5-Chloro-3-methyl-1-benzothiophen-2-yl)carbonyl]-1,3′-biazetidin-3-yl}benzamide]
13 | 476 nM | CN(C(=O)c1nccs1)C1CN(C2CN(C(=O)c3cc4ccc(C(F)(F)F)cc4s3)C2)C1 [Cpd 37, N-Methyl-N-(1′-{[6-(trifluoromethyl)-1-benzothiophen-2-yl]carbonyl}-1,3′-biazetidin-3-yl)-1,3-thiazole-2-carboxamide]
14 | 588 nM | O=C(c1ccccc1)c1ccc(C(=O)N2CC(N3CC(NC(=O)c4nccs4)C3)C2)cc1 [Cpd 38, N-(1′-{[4-(Phenylcarbonyl)phenyl]carbonyl}-1,3′-biazetidin-3-yl)-1,3-thiazole-2-carboxamide]
15 | 882 nM | O=C(NC1CN(C2CN(C(=O)c3ccc4cc(Br)ccc4c3)C2)C1)c1nccs1 [Cpd 40, N-{1′-[(6-Bromonaphthalen-2-yl)carbonyl]-1,3′-biazetidin-3-yl}-1,3-thiazole-2-carboxamide]
